Like-named read-outs stand apart in the source and are kept apart here.
How the values were obtained:
[1] = Binding assay: competition with ConA-FITC on glucose-terminated magnetic beads; conditions: relative to ConA; 2.4 μM ConA-FITC, boronic acid 2.5 μM to 20 μM, PBS pH 7.2
Method: The binding affinity of boronic acid derivatives to glucose was determined by competition assay using ConcanavalinA (ConA) as the competitive standard, and varying concentrations of the boronic acid derivatives. Carboxy-terminated magnetic beads were activated by suspending the beads in 100 mM 2-(N-morpholino)ethanesulfonic acid (MES) buffer (pH 4.5). Glucosamine (100 mg/mL) was conjugated to the activated magnetic beads using carbodiimide coupling with 1-ethyl-3-(3-dimethylaminopropyl)carbodiimide (EDC) as a crosslinker. The conjugation reaction was carried out in a 96 well plate. The reaction was run for 24 h. The beads were separated by placing the microplate on a magnetic separator and were washed thoroughly with PBS at pH 7.2 to remove unbound glucose, excess EDC, and N-hydroxysulfosuccinimide (Sulfo-NHS).
The glucose terminated beads were co-incubated for 1 h with 2.4 μM ConA (a known binder of carbohydrates) fluorescently tagged with fluorescein isothiocyanate (ConA-FITC), and titrated with concentrations ranging from 2.5 μM to 20 μM of each boronic acid derivative tested. The following controls were used: (A) carboxy-terminated magnetic beads (not conjugated to glucose) were treated with ConA-FITC to determine non-specific binding; and (B) glucose conjugated beads were treated with a high concentration of non-fluorescent ConA to determine maximal binding.
The wells were washed three times with PBS at pH 7.2 to remove unbound boronic acid derivatives and FITC-ConA. The beads were re-suspended in PBS and stirred for 15 min at rt before measuring FITC fluorescence (excitation: 495 nm, top emission: 520 nm; 6 flashes per well; average of n=3 wells in a Flexstation 11^384 microplate reader to quantify the amount of glucose bound to the boronic acids). The fluorescence intensity was measured and used as an indication of the amount of ConA bound to the surface of the beads, or [ConAs]. The ConA-sugar interaction was expected to be inhibited by the boronic acid derivatives, which can bind the sugar molecules and displace the bound ConA-FITC, thereby causing a decrease in fluorescence intensity of the mixture.
The binding constant of the boronic acid derivatives was calculated from the fluorescence intensity. The reduction of fluorescence intensity is related to [ConAs] by Equation 2.
[formula] The relationship between [ConAs] and the amount of boronic acid [BA] is given by Equation 3.
[formula] Simple rearrangement yields Equation 4, from which the ratio of the two equilibrium constants (KConA/KBA) can be derived.
[formula] • The concentration of sugar sites (S1) can be calculated from the intercept of a plot of 1/[ConAs] vs 1/[BA].

HeLa cells [2] = assay: MTT assay for cytotoxicity; conditions: 2 h
Method: (§1) The cytotoxicity of the boronic acid derivatives from Table 1 was studied by MTT assay. 150,000 HeLa cells were plated in 96 well plates on the night before the experiments. On the day of experiments, the cells were treated with the boronic acid derivatives at three different concentrations (40 nM, 80 nM, and 160 nM) for 2 h. At the end of the incubation, MTT assays (In-Vitro toxicology MTT based assay kit, Sigma Aldrich, MO) were performed according to the manufacturer's protocol.

NF-κB [3] = assay: NF-κB assay for inflammation (nuclear translocation of NF-κB, immunocytochemistry, PCC); conditions: HeLa cells, 2 h, PCC between nuclear and cytoplasmic fraction of NF-κB
Method: (§2) 15,000 HeLa cells were plated in 96 well plates the night before the experiments. On the day of the experiments, the cells were treated with the boronic acids (Table 1, below) at three different concentrations (40 nM, 80 nM, and 160 nM) for 2 h. At the end of the incubation, cells were washed with phosphate buffered saline (PBS) and were fixed in 4% paraformaldehyde for 15 min and permeablized with 0.01% Triton X-100 in PBS for 10 min. The cells were washed with PBS three times. Nonspecific sites were blocked with 5% bovine serum albumin (BSA) in PBS and incubated with the Anti-NF-κB for 1 h, followed by incubation with fluorescein isothiocyanate (FITC)-labeled secondary antibody. After washing the cells at the end of the incubation, the cells were treated with 4′,6-diamidino-2-phenylindole (DAPI) for 1 min and kept at 4° C. until further analysis. Images of the cells were acquired with a Beckman-Coulter 100 automated high-throughput microscope system and analyzed using Cytseer software (Vala Sciences, CA). The co-localization of NF-κB was quantified by measuring the PCC between the nuclear and cytoplasmic fraction of the NF-κB molecule. The PCC is a measure of the overlap between the pixel intensities of the nuclear and NF-κB images of the same cell. The PCC values can range from −1 to 1. […] A negative correlation (negative PCC value) indicates an absence of nuclear translocation.

NF-κB [4] = conditions: human
Method: as §2

HeLa cells [5] = conditions: human
Method: as §1

Row | Compound | Sugar Binding Affinity Log(KaBA/KaConA) [1] | MTT (% Cell Survival) 40 nM (HeLa cells [2]) | MTT (% Cell Survival) 80 nM (HeLa cells [2]) | MTT (% Cell Survival) 160 nM (HeLa cells [2]) | Inflammation (PCC) 40 nM (NF-κB [3]) | Inflammation (PCC) 80 nM (NF-κB [3]) | Inflammation (PCC) 160 nM (NF-κB [3]) | Inflammation (PCC) 40 nM (NF-κB [4]) | Inflammation (PCC) 80 nM (NF-κB [4]) | Inflammation (PCC) 160 nM (NF-κB [4]) | MTT (% Cell Survival) 40 nM (HeLa cells [5]) | MTT (% Cell Survival) 80 nM (HeLa cells [5]) | MTT (% Cell Survival) 160 nM (HeLa cells [5])
1 | O=C(Cl)c1ccc(B2OB(c3ccc(C(=O)Cl)cc3)OB(c3ccc(C(=O)Cl)cc3)O2)cc1 [4-chlorocarbonylphenylboronic anhydride] | −2.08 | 114.54% | 107.21% | 79.46% | −0.0664 | −0.0012 | 0.09826 |  |  |  |  |  | 
2 | OB(O)c1ccc(Cl)cc1 [4-chlorophenylboronic acid] |  |  |  |  |  |  |  | −0.1494 | 0.01664 | 0 | 51.23% | 81.65% | 56.97%
3 | OB(O)c1ccc(O)cc1 [4-hydroxyphenylboronic acid] | −1.08 | 203.926% | 198.184% | 172.8% | −0.0665 | −0.1081 | 0.2007 |  |  |  |  |  | 
4 | CCCc1ccc(B(O)O)cc1 [4-propylphenylboronic acid] | −0.009 | 202.674% | 202.92% | 164.2% | −0.1402 | −0.0786 | 0.1922 |  |  |  |  |  | 
5 | O=Cc1cc(B(O)O)cs1 [5-formylthiophene-3-boronic acid] | −1.24 | 86.87% | 87.03% | 73.80% | −0.0359 | 0.00225 | 0.193 |  |  |  |  |  | 
6 | OB(O)c1ccc(-c2ccccc2)s1 [5-phenyl-2-thienylboronic acid] | −2.3 | 100.56% | 81.24% | 86.23% | −0.0211 | −0.0701 | 0.1187 |  |  |  |  |  | 
